Measurements as given in paper PMC10895678 (Journal of Medicinal Chemistry, 2024).
Where two headings read alike, the source gives them in different places.

Legend:
[1] = target: CYP2C19 (Homo sapiens, UniProt P33261); experiment: biochemical; format: in vitro ADME; settings: for CYP2C19 inhibition (in words) / IC50: human liver microsomes
Experimental: (§1) Compounds were solubilized to 10 mM in DMSO. The BGAz compounds were incubated at concentrations of 0.003, 0.009, 0.03, 0.08, 0.25, 0.74, 2.2, 6.7, and 20 μM with CYP1A2, CYP2C9, CYP2C19, and CYP2D6 at 37 °C in the presence of the drug-like probe substrate […] the Phase 1 cofactor NADPH (1 mM). The formation of metabolites of the drug-like probe substrates in the absence and presence of the BGAz compound was monitored by LC-MS/MS, and the IC50 value was determined. All assays had two replicates per compound and included a positive control inhibitor.

[2] = target: CYP2C9 (Homo sapiens, UniProt P11712); experiment: biochemical; format: in vitro ADME; settings: for IC50: human liver microsomes
Experimental: as §1

[3] = target: CYP2D6 (Homo sapiens, UniProt P10635); experiment: biochemical; format: in vitro ADME; settings: human liver microsomes
Experimental: as §1

[4] = target: hERG (Homo sapiens, UniProt Q12809); experiment: cell-based; format: cell-based; settings: for IC50: CHO cells expressing hERG, eight-point curve
Experimental: Compounds were solubilized to 30 mM in DMSO before dilution in PBS to […]. […] Eight-point concentration–response curves were generated using 3.16-fold serial dilutions from the top test concentration. Electrophysiological recordings were made from a Chinese Hamster Ovary cell line stably expressing the full length hERG channel. Single cell ionic currents were measured in the perforated patch clamp configuration (100 μg mL^–1 amphotericin) at room temperature (21–23 °C) using an IonWorks Quattro instrument (Molecular Devices). The internal solution contained (mM) 140 KCl, 1 MgCl2, 1 EGTA, and 20 HEPES and was buffered to pH 7.3. The external solution [PBS contained (mM): 138 NaCl, 2.7 KCl, 0.9 CaCl2, 0.5 MgCl2, 8 Na2HPO4, and 1.5 KH2PO4 buffered to pH 7.4]. Cells were clamped at a holding potential of −70 mV for 30 s and then stepped to +40 mV for one second. This was followed by a hyperpolarising step of 1 s to −30 mV to evoke the hERG tail current. Currents were measured from the tail step and referenced to the holding current. Compounds were then incubated for 3–4 min prior to a second measurement of the hERG signal using an identical pulsetrain.

[5] = tested on: BCG pTIC6-fbpB; format: cell-based, Mycobacterium bovis BCG
[6] = tested on: BCG pTIC6-fbpC; format: cell-based, Mycobacterium bovis BCG
[7] = tested on: BCG pVV16-mmpL3; format: cell-based, Mycobacterium bovis BCG
[8] = preincubated 30 min prior to NADPH, read-out: CYP2C19 [pre-inc] IC50
[9] = without pre-incubation, read-out: CYP2C19 IC50
[10] = preincubated 30 min prior to NADPH, read-out: CYP2C9 [pre-inc] IC50
[11] = without pre-incubation, read-out: CYP2C9 IC50
[12] = preincubated 30 min prior to NADPH, read-out: CYP2D6 [pre-inc] IC50
[13] = without pre-incubation, read-out: CYP2D6 IC50

Sequence of CYP2C9 (P11712 whole entry): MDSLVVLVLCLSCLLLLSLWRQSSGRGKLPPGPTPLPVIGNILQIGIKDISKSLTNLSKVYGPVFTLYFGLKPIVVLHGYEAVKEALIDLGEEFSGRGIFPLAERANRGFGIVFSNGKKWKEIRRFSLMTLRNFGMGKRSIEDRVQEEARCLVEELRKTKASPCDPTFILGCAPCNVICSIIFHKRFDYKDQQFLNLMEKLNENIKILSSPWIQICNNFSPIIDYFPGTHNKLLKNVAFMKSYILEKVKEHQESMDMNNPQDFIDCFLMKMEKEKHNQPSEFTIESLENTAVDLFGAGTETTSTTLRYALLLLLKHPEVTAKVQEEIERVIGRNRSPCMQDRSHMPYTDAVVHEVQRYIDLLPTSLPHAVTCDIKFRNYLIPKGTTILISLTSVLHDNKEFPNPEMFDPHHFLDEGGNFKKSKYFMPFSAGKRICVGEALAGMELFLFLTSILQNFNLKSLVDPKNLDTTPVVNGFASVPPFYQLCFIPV
Sequence of CYP2C19 (P33261 whole entry): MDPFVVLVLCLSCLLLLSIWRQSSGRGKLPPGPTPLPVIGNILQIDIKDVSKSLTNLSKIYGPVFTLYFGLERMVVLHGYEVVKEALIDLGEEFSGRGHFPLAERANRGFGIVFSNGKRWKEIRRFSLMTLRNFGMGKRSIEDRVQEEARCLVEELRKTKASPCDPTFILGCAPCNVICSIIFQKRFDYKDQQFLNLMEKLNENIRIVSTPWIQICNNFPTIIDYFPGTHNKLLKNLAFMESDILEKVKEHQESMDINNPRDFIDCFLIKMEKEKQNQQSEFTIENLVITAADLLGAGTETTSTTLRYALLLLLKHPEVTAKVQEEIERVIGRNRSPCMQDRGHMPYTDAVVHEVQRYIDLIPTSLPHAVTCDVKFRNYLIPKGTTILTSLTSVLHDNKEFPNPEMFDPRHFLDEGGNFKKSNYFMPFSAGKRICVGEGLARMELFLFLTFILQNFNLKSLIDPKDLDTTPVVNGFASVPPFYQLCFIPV
Sequence of hERG (Q12809 whole entry): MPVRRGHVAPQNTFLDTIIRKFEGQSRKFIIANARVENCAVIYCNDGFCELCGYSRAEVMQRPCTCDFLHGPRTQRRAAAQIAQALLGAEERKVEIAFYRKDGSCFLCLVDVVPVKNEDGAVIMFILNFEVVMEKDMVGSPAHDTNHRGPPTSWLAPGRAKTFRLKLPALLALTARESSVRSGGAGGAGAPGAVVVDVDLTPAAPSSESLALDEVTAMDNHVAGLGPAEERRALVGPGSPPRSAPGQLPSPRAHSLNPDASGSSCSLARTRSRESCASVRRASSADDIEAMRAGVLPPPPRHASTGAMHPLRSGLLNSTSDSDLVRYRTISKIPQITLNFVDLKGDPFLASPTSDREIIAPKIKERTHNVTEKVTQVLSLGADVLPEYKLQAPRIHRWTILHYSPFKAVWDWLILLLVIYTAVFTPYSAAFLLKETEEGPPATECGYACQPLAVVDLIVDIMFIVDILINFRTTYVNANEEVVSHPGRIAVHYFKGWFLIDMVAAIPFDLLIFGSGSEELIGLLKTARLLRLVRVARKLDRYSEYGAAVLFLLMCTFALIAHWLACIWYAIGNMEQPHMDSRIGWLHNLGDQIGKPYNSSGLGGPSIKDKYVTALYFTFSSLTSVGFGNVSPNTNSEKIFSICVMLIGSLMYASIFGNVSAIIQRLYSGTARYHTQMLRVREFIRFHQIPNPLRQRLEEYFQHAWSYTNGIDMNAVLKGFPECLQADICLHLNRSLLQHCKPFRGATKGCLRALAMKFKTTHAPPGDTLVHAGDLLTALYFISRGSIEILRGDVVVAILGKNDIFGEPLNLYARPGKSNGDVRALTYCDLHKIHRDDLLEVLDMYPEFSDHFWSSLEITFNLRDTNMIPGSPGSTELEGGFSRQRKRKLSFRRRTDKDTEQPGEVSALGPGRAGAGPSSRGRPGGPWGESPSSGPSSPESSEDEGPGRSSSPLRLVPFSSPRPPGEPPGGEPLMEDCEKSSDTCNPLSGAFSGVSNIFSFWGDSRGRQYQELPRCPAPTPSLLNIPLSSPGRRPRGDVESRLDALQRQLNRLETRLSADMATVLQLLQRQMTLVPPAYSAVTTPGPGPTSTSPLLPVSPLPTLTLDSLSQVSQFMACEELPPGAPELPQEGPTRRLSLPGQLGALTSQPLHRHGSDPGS
Sequence of CYP2D6 (P10635 whole entry): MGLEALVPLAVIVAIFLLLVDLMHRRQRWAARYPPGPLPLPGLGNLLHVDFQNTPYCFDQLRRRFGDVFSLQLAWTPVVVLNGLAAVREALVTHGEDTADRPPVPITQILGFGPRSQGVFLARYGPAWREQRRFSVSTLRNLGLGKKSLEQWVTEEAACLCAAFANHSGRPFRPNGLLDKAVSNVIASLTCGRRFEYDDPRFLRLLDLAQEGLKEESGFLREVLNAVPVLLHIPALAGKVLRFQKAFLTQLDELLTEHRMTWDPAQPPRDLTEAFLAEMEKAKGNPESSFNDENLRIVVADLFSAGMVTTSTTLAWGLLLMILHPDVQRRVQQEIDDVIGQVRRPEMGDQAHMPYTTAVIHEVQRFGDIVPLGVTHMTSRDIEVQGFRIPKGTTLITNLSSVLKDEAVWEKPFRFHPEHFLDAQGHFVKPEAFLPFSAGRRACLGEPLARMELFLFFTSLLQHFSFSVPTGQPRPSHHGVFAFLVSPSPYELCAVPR

| Structure (SMILES) | CYP2C19 inhibition (in words) [1] | IC50 [1, 8] [µM] | IC50 [1, 9] [µM] | IC50 [2, 10] [µM] | IC50 [2, 11] [µM] | CYP2D6 inhibition (in words) [3] | IC50 [3, 12] [µM] | IC50 [3, 13] [µM] | IC50 [4] [µM] | BCG pTIC6-fbpB MIC [5] [µM] | increase in MIC upon overexpression of FbpB [5] | BCG pTIC6-fbpC MIC [6] [µM] | increase in MIC upon overexpression of FbpC [6] | IC50 ([4]; human, CHO cells stably expressing hERG, pH 7.4) [µM] | inhibition at 167 µM ([4]; human, pH 7.4, 167 μM, read-out: hERG inhibition at top test concentration) [%] | BCG pVV16-mmpL3 MIC [7] [µM] | CYP2C19 inhibition (in words), preincubated ([1]; preincubated for 30 min prior to initiation of catalysis) | CYP2C9 inhibition (in words) ([2]; preincubated for 30 min prior to the addition of NADPH) |
| --- | --- | --- | --- | --- | --- | --- | --- | --- | --- | --- | --- | --- | --- | --- | --- | --- | --- | --- |
| CNCC1CC(c2ccc(OC(F)(F)F)cc2)N1Cc1ccccc1OC(F)(F)F (stereo not drawn) [BGAz-005] | negligible inhibition | 15.8 | > 20 | > 20 | > 20 | significant inhibition | 0.01 | 0.06 | 12.7 | 50 | two-fold increase | 50 | two-fold increase | – | – | – | – | – |
| FC(F)(F)Oc1ccc(C2CC(CN3CCCC3)N2Cc2ccccc2OC(F)(F)F)cc1 (stereo not drawn) [BGAz-002] | negligible inhibition | > 20 | > 20 | > 20 | > 20 | significant inhibition | 0.08 | 0.19 | – | – | – | – | – | > 167 | < 50 | 25 | – | – |
| Brc1cc(Br)cc(C2CC(CN3CCCC3)N2Cc2ccccc2Br)c1 (stereo not drawn) [BGAz-004] | – | 2.04 | > 15.1 | 17.8 | > 20 | significant inhibition | 1.05 | 1.97 | 25 | 28 | two-fold increase | 34 | two-fold increase | – | – | 40 | strong inhibitory activity | minimal CYP2C9 inhibition |
